Values quoted from earlier work in patent publication US20090062282A1, “Substituted Amino-Pyrimidones and Uses Thereof” (AstraZeneca AB, priority 2004, published 2009).
Square brackets hold non-standard residues; d marks the D form. Peptide text beside a SMILES is read from it. * marks the point of attachment. Sta = CC(C)C[C@H](N)[C@@H](O)CC(=O)O; Isovaleryl = CC(C)CC(=O)*

Target: BACE (Homo sapiens, UniProt P56817)
Sequence (P56817 46-501): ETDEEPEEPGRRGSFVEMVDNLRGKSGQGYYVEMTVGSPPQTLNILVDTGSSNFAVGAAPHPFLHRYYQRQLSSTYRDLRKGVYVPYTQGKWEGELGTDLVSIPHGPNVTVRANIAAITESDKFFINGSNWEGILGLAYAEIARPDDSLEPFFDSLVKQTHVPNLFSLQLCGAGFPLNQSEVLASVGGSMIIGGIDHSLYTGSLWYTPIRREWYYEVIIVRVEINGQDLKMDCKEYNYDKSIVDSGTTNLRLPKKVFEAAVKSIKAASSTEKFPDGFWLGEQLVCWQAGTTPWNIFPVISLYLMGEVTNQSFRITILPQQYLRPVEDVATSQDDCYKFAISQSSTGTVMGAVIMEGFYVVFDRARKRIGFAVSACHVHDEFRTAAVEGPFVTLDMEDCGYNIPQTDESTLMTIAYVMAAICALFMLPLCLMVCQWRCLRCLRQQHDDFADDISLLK

inhibition of BACE: inhibited weakly
Compound: CC(C)CC(=O)N[C@H](C(=O)N[C@H](C(=O)N[C@@H](CC(C)C)[C@@H](O)CC(=O)N[C@@H](C)C(=O)N[C@@H](CC(C)C)[C@@H](O)CC(=O)O)C(C)C)C(C)C [pepstatin] (Isovaleryl-VV[Sta]A[Sta]-OH)
